The source of these data is ChEMBL document CHEMBL1134918, “General solid-phase method to prepare novel cyclic ketone inhibitors of the cysteine protease cruzain” (Bioorg Med Chem Lett, 2002).

The structures appear in SMILES notation. pKi: −log10 of the molar value.

In one assay the target is Procathepsin L (Homo sapiens, UniProt P07711). Kind of assay: Affinity for human Cathepsin L.
In a further assay the target is Cruzipain (Trypanosoma cruzi, UniProt P25779). Briefly: Affinity for cysteine protease (Cruzipain) of Chagas' disease.
The next assay concerns the target Cathepsin B (Homo sapiens, UniProt P07858). Briefly: Affinity for human Cathepsin B.

Sequence of Procathepsin L (P07711 whole entry): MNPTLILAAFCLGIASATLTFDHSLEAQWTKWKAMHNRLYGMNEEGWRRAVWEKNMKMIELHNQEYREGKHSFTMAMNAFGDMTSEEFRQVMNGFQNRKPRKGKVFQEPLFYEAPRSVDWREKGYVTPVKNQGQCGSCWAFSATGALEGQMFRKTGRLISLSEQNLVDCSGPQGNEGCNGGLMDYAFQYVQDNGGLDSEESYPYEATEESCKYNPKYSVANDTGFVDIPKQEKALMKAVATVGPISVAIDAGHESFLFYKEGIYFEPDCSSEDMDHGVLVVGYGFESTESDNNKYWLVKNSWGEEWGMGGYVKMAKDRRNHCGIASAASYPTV
Sequence of Cruzipain (P25779 whole entry): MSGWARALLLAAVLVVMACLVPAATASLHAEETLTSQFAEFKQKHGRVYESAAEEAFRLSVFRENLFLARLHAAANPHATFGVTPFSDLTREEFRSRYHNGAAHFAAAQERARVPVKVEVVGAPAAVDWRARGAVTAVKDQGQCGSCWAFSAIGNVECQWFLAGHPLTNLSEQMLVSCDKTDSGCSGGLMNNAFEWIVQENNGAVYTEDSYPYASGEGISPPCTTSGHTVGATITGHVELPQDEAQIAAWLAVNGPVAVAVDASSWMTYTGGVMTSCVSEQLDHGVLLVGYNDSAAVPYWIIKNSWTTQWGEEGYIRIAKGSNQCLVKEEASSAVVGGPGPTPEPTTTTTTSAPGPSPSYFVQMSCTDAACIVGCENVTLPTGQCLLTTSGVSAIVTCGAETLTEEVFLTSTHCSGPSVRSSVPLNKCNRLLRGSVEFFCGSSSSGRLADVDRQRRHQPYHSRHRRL

Take `CC(C)N1CC(=O)C(NC(=O)[C@H](Cc2ccccc2)NC(=O)OCc2ccccc2)CC1=O` (stereo partly specified): the figures for the pKi at Procathepsin L, at Cruzipain and on Cathepsin B were 6.22, 6.42 and 4.89, respectively.

At Cathepsin B, `CC(C)C[C@H](NC(=O)OCc1ccccc1)C(=O)NC1CN(C(=O)[C@H](CC(C)C)NC(=O)OCc2ccccc2)CC1=O` (stereo partly specified) showed a pKi of less than 6.00.

Regarding `COCCN1CC(=O)C(NC(=O)[C@H](Cc2ccccc2)NC(=O)OCc2ccccc2)CC1=O` (stereo partly specified), the figures for the pKi on Procathepsin L, at Cruzipain and at Cathepsin B were 6.06, 6.01 and less than 5.00, respectively.

Take `CCCN1CC(=O)C(NC(=O)[C@H](Cc2ccccc2)NC(=O)OCc2ccccc2)CC1=O` (stereo partly specified): the pKi on Procathepsin L is 6.63; at Cruzipain it was 6.44; at Cathepsin B, 4.98.

As to `CC(C)CN1CC(=O)C(NC(=O)[C@H](Cc2ccccc2)NC(=O)OCc2ccccc2)CC1=O` (stereo partly specified), the pKi is 6.52 at Procathepsin L, 6.56 on Cruzipain and 5.34 on Cathepsin B.

On to `CC(C)C[C@@H](C(=O)NCC(=O)CNS(=O)(=O)c1ccc(Oc2ccccc2)cc1)c1cccc(-c2ccccc2)c1`, for which, at Cathepsin B, the pKi was less than 5.00.

`O=C(N[C@@H](Cc1ccccc1)C(=O)NC1CC(=O)N(CCc2ccccc2)CC1=O)OCc1ccccc1` (stereo in doubt) had a pKi on Cruzipain of 7.27.

For `O=C(N[C@@H](Cc1ccccc1)C(=O)NC1CC(=O)N(CCCc2ccccc2)CC1=O)OCc1ccccc1` (stereo in doubt), on Cruzipain, the negative logarithm of the Ki (pKi) is 7.79.

For the compound `O=C(N[C@@H](Cc1ccccc1)C(=O)NC1CC(=O)N(Cc2ccccc2)CC1=O)OCc1ccccc1` (stereo in doubt), the pKi at Cruzipain is 6.69.

For `O=C(N[C@@H](Cc1ccccc1)C(=O)NC1CC(=O)N(CCCc2ccccc2)CC1=O)OCc1ccccc1` (stereo in doubt; 4e), the results for the pKi at Procathepsin L, on Cruzipain and at Cathepsin B were 7.72, 7.80 and 6.16, respectively.

In the case of `O=C(N[C@@H](Cc1ccccc1)C(=O)NC1CC(=O)N(CCc2ccccc2)CC1=O)OCc1ccccc1` (stereo in doubt; 4f), the negative-log Ki (pKi) on Procathepsin L is 7.03; at Cruzipain, 7.28; on Cathepsin B, 5.21.

Regarding `O=C(N[C@@H](Cc1ccccc1)C(=O)NC1CC(=O)N(Cc2ccccc2)CC1=O)OCc1ccccc1` (stereo in doubt; 4g), the pKi at Procathepsin L was 6.42; at Cruzipain it was 6.69; at Cathepsin B, 4.88.
